Data taken from ChEMBL document CHEMBL5042477, “Potent Cyclic Peptide Inhibitors of FXIIa Discovered by mRNA Display with Genetic Code Reprogramming” (J Med Chem, 2021).
Where a SMILES comes first, the peptide text is derived from it. Bridges are numbered along the chain shown (N, C = ends). [ ]: non-standard residue; d: D form. Phe(3-CF3) = N[C@@H](Cc1cccc(C(F)(F)F)c1)C(=O)O; Phe(4-CF3) = N[C@@H](Cc1ccc(C(F)(F)F)cc1)C(=O)O; Phe(2-CF3) = N[C@@H](Cc1ccccc1C(F)(F)F)C(=O)O; Phe(3-CN) = N#Cc1cccc(C[C@H](N)C(=O)O)c1; Phe(3-OMe) = COc1cccc(C[C@H](N)C(=O)O)c1; Phe(2-CN) = N#Cc1ccccc1C[C@H](N)C(=O)O; Phe(2-OMe) = COc1ccccc1C[C@H](N)C(=O)O; Phe(3-F) = N[C@@H](Cc1cccc(F)c1)C(=O)O; Phe(4-F) = N[C@@H](Cc1ccc(F)cc1)C(=O)O; Phe(4-Me) = Cc1ccc(C[C@H](N)C(=O)O)cc1; Phe(2-F) = N[C@@H](Cc1ccccc1F)C(=O)O; hTyr = N[C@@H](CCc1ccc(O)cc1)C(=O)O; hArg = N=C(N)NCCCC[C@H](N)C(=O)O; hPhe = N[C@@H](CCc1ccccc1)C(=O)O; 2Pal = N[C@@H](Cc1ccccn1)C(=O)O; 3Pal = N[C@@H](Cc1cccnc1)C(=O)O; 4Pal = N[C@@H](Cc1ccncc1)C(=O)O; Tic = O=C(O)[C@@H]1Cc2ccccc2CN1; Cha = N[C@@H](CC1CCCCC1)C(=O)O; Agb = N=C(N)NCC[C@H](N)C(=O)O; Orn = NCCC[C@H](N)C(=O)O

Molecular target: T1, Coagulation factor XII (Homo sapiens, UniProt P00748)
T1 sequence (P00748 whole entry): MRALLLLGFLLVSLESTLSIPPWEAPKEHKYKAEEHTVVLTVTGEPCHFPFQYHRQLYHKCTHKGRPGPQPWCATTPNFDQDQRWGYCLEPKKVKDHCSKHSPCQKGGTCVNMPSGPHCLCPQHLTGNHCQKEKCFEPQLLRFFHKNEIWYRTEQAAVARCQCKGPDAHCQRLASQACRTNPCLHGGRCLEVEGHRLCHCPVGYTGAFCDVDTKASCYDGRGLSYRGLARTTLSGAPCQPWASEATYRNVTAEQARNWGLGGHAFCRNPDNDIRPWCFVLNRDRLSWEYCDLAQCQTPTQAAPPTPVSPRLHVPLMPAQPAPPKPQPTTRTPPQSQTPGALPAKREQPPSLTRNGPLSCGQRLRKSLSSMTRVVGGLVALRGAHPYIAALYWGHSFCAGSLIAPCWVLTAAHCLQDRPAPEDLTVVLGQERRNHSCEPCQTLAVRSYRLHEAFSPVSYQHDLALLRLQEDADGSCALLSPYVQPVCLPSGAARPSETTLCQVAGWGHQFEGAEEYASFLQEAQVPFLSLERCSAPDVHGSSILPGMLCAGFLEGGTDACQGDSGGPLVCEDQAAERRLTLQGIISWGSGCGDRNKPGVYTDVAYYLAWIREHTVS
Experiment: Inhibition of human factor 12a using H-D-Pro-Phe-Arg-p-nitroanilide as chromogenic substrate assessed as liberation of p-nitroaniline measured every 5 mins for 60 min by multimode plate reader analysis

| SMILES | IC50 [µM] |
| --- | --- |
| CC(C)C[C@@H]1NC(=O)[C@H](Cc2ccc(O)cc2)NC(=O)CSC[C@@H](C(N)=O)NC(=O)CNC(=O)CNC(=O)[C@H](CCCNC(=N)N)NC(=O)[C@H](CC(=O)O)NC(=O)[C@H](CCCCN)NC(=O)[C@@H]2CCCN2C(=O)[C@H](CCCNC(=N)N)NC(=O)[C@@H]2Cc3ccccc3CN2C(=O)[C@H](CCCNC(=N)N)NC1=O ({CH2CO}-YLR[Tic]RPKDRGGC-NH2; thioether N-12) | 22 |
| CC(C)C[C@@H]1NC(=O)[C@H](Cc2ccc(O)cc2)NC(=O)CSC[C@@H](C(N)=O)NC(=O)CNC(=O)CNC(=O)[C@H](CCCNC(=N)N)NC(=O)[C@H](CC(=O)O)NC(=O)[C@H](CCCCN)NC(=O)[C@@H]2CCCN2C(=O)[C@H](CCCNC(=N)N)NC(=O)[C@H](Cc2ccccc2)NC(=O)[C@H](CCCN)NC1=O ({CH2CO}-YL[Orn]FRPKDRGGC-NH2; thioether N-12) | 71 |
| CC(C)C[C@@H]1NC(=O)[C@H](Cc2cccnc2)NC(=O)CSC[C@@H](C(N)=O)NC(=O)CNC(=O)CNC(=O)[C@H](CCCNC(=N)N)NC(=O)[C@H](CC(=O)O)NC(=O)[C@H](CCCCN)NC(=O)[C@@H]2CCCN2C(=O)[C@H](CCCNC(=N)N)NC(=O)[C@H](Cc2ccccc2)NC(=O)[C@H](CCCNC(=N)N)NC1=O ({CH2CO}-[3Pal]LRFRPKDRGGC-NH2; thioether N-12) | 15 |
| CC(C)C[C@@H]1NC(=O)[C@H](Cc2ccncc2)NC(=O)CSC[C@@H](C(N)=O)NC(=O)CNC(=O)CNC(=O)[C@H](CCCNC(=N)N)NC(=O)[C@H](CC(=O)O)NC(=O)[C@H](CCCCN)NC(=O)[C@@H]2CCCN2C(=O)[C@H](CCCNC(=N)N)NC(=O)[C@H](Cc2ccccc2)NC(=O)[C@H](CCCNC(=N)N)NC1=O ({CH2CO}-[4Pal]LRFRPKDRGGC-NH2; thioether N-12) | 12 |
| CC(C)C[C@@H]1NC(=O)[C@H](CC2CCCCC2)NC(=O)CSC[C@@H](C(N)=O)NC(=O)CNC(=O)CNC(=O)[C@H](CCCNC(=N)N)NC(=O)[C@H](CC(=O)O)NC(=O)[C@H](CCCCN)NC(=O)[C@@H]2CCCN2C(=O)[C@H](CCCNC(=N)N)NC(=O)[C@H](Cc2ccccc2)NC(=O)[C@H](CCCNC(=N)N)NC1=O ({CH2CO}-[Cha]LRFRPKDRGGC-NH2; thioether N-12) | 140 |
| CC(C)C[C@@H]1NC(=O)[C@H](Cc2ccccc2C(F)(F)F)NC(=O)CSC[C@@H](C(N)=O)NC(=O)CNC(=O)CNC(=O)[C@H](CCCNC(=N)N)NC(=O)[C@H](CC(=O)O)NC(=O)[C@H](CCCCN)NC(=O)[C@@H]2CCCN2C(=O)[C@H](CCCNC(=N)N)NC(=O)[C@H](Cc2ccccc2)NC(=O)[C@H](CCCNC(=N)N)NC1=O ({CH2CO}-[Phe(2-CF3)]LRFRPKDRGGC-NH2; thioether N-12) | 120 |
| CC(C)C[C@@H]1NC(=O)[C@H](Cc2ccccc2C#N)NC(=O)CSC[C@@H](C(N)=O)NC(=O)CNC(=O)CNC(=O)[C@H](CCCNC(=N)N)NC(=O)[C@H](CC(=O)O)NC(=O)[C@H](CCCCN)NC(=O)[C@@H]2CCCN2C(=O)[C@H](CCCNC(=N)N)NC(=O)[C@H](Cc2ccccc2)NC(=O)[C@H](CCCNC(=N)N)NC1=O ({CH2CO}-[Phe(2-CN)]LRFRPKDRGGC-NH2; thioether N-12) | 14 |
| COc1ccccc1C[C@@H]1NC(=O)CSC[C@@H](C(N)=O)NC(=O)CNC(=O)CNC(=O)[C@H](CCCNC(=N)N)NC(=O)[C@H](CC(=O)O)NC(=O)[C@H](CCCCN)NC(=O)[C@@H]2CCCN2C(=O)[C@H](CCCNC(=N)N)NC(=O)[C@H](Cc2ccccc2)NC(=O)[C@H](CCCNC(=N)N)NC(=O)[C@H](CC(C)C)NC1=O ({CH2CO}-[Phe(2-OMe)]LRFRPKDRGGC-NH2; thioether N-12) | 400 |
| CC(C)C[C@@H]1NC(=O)[C@H](Cc2cccc(C(F)(F)F)c2)NC(=O)CSC[C@@H](C(N)=O)NC(=O)CNC(=O)CNC(=O)[C@H](CCCNC(=N)N)NC(=O)[C@H](CC(=O)O)NC(=O)[C@H](CCCCN)NC(=O)[C@@H]2CCCN2C(=O)[C@H](CCCNC(=N)N)NC(=O)[C@H](Cc2ccccc2)NC(=O)[C@H](CCCNC(=N)N)NC1=O ({CH2CO}-[Phe(3-CF3)]LRFRPKDRGGC-NH2; thioether N-12) | 84 |
| CC(C)C[C@@H]1NC(=O)[C@H](Cc2ccc(C(F)(F)F)cc2)NC(=O)CSC[C@@H](C(N)=O)NC(=O)CNC(=O)CNC(=O)[C@H](CCCNC(=N)N)NC(=O)[C@H](CC(=O)O)NC(=O)[C@H](CCCCN)NC(=O)[C@@H]2CCCN2C(=O)[C@H](CCCNC(=N)N)NC(=O)[C@H](Cc2ccccc2)NC(=O)[C@H](CCCNC(=N)N)NC1=O ({CH2CO}-[Phe(4-CF3)]LRFRPKDRGGC-NH2; thioether N-12) | 74 |

These reach a lower IC50. Values come first.

| IC50 [µM] | SMILES |
| --- | --- |
| 11 | CC(C)C[C@@H]1NC(=O)[C@H](Cc2ccccn2)NC(=O)CSC[C@@H](C(N)=O)NC(=O)CNC(=O)CNC(=O)[C@H](CCCNC(=N)N)NC(=O)[C@H](CC(=O)O)NC(=O)[C@H](CCCCN)NC(=O)[C@@H]2CCCN2C(=O)[C@H](CCCNC(=N)N)NC(=O)[C@H](Cc2ccccc2)NC(=O)[C@H](CCCNC(=N)N)NC1=O ({CH2CO}-[2Pal]LRFRPKDRGGC-NH2; thioether N-12) |
| 3.1 | CC(C)C[C@@H]1NC(=O)[C@H](Cc2cccc(C#N)c2)NC(=O)CSC[C@@H](C(N)=O)NC(=O)CNC(=O)CNC(=O)[C@H](CCCNC(=N)N)NC(=O)[C@H](CC(=O)O)NC(=O)[C@H](CCCCN)NC(=O)[C@@H]2CCCN2C(=O)[C@H](CCCNC(=N)N)NC(=O)[C@H](Cc2ccccc2)NC(=O)[C@H](CCCNC(=N)N)NC1=O ({CH2CO}-[Phe(3-CN)]LRFRPKDRGGC-NH2; thioether N-12) |
| 0.74 | CC(C)C[C@@H]1NC(=O)[C@H](Cc2ccc(O)cc2)NC(=O)CSC[C@@H](C(N)=O)NC(=O)CNC(=O)CNC(=O)[C@H](CCCNC(=N)N)NC(=O)[C@H](CC(=O)O)NC(=O)[C@H](CCCCN)NC(=O)[C@@H]2CCCN2C(=O)[C@H](CCCNC(=N)N)NC(=O)[C@H](CCc2ccccc2)NC(=O)[C@H](CCCNC(=N)N)NC1=O ({CH2CO}-YLR[hPhe]RPKDRGGC-NH2; thioether N-12) |
| 0.65 | CC(C)C[C@@H]1NC(=O)[C@H](Cc2cccc(F)c2)NC(=O)CSC[C@@H](C(N)=O)NC(=O)CNC(=O)CNC(=O)[C@H](CCCNC(=N)N)NC(=O)[C@H](CC(=O)O)NC(=O)[C@H](CCCCN)NC(=O)[C@@H]2CCCN2C(=O)[C@H](CCCNC(=N)N)NC(=O)[C@H](Cc2ccccc2)NC(=O)[C@H](CCCNC(=N)N)NC1=O ({CH2CO}-[Phe(3-F)]LRFRPKDRGGC-NH2; thioether N-12) |
| 0.64 | COc1cccc(C[C@@H]2NC(=O)CSC[C@@H](C(N)=O)NC(=O)CNC(=O)CNC(=O)[C@H](CCCNC(=N)N)NC(=O)[C@H](CC(=O)O)NC(=O)[C@H](CCCCN)NC(=O)[C@@H]3CCCN3C(=O)[C@H](CCCNC(=N)N)NC(=O)[C@H](Cc3ccccc3)NC(=O)[C@H](CCCNC(=N)N)NC(=O)[C@H](CC(C)C)NC2=O)c1 ({CH2CO}-[Phe(3-OMe)]LRFRPKDRGGC-NH2; thioether N-12) |
| 0.587 | CC(C)C[C@@H]1NC(=O)[C@H](Cc2ccc(O)cc2)NC(=O)CSC[C@@H](C(N)=O)NC(=O)CNC(=O)CNC(=O)[C@H](CCCNC(=N)N)NC(=O)[C@H](CC(=O)O)NC(=O)[C@H](CCCCN)NC(=O)[C@@H]2CCCN2C(=O)[C@H](CCCNC(=N)N)NC(=O)[C@H](Cc2ccccc2)NC(=O)[C@H](CCNC(=N)N)NC1=O ({CH2CO}-YL[Agb]FRPKDRGGC-NH2; thioether N-12) |
| 0.56 | CC(C)C[C@@H]1NC(=O)[C@H](Cc2ccc(O)cc2)NC(=O)CSC[C@@H](C(N)=O)NC(=O)CNC(=O)CNC(=O)[C@H](CCCNC(=N)N)NC(=O)[C@H](CC(=O)O)NC(=O)[C@H](CCCCN)NC(=O)[C@@H]2CCCN2C(=O)[C@H](CCCNC(=N)N)NC(=O)[C@H](CCc2ccc(O)cc2)NC(=O)[C@H](CCCNC(=N)N)NC1=O ({CH2CO}-YLR[hTyr]RPKDRGGC-NH2; thioether N-12) |
| 0.35 | CC(C)C[C@@H]1NC(=O)[C@H](Cc2ccccc2F)NC(=O)CSC[C@@H](C(N)=O)NC(=O)CNC(=O)CNC(=O)[C@H](CCCNC(=N)N)NC(=O)[C@H](CC(=O)O)NC(=O)[C@H](CCCCN)NC(=O)[C@@H]2CCCN2C(=O)[C@H](CCCNC(=N)N)NC(=O)[C@H](Cc2ccccc2)NC(=O)[C@H](CCCNC(=N)N)NC1=O ({CH2CO}-[Phe(2-F)]LRFRPKDRGGC-NH2; thioether N-12) |
| 0.073 | CC(C)C[C@@H]1NC(=O)[C@H](Cc2ccc(O)cc2)NC(=O)CSC[C@@H](C(N)=O)NC(=O)CNC(=O)CNC(=O)[C@H](CCCNC(=N)N)NC(=O)[C@H](CC(=O)O)NC(=O)[C@H](CCCCN)NC(=O)[C@@H]2CCCN2C(=O)[C@H](CCCNC(=N)N)NC(=O)[C@H](Cc2ccccc2)NC(=O)[C@H](CCCCNC(=N)N)NC1=O ({CH2CO}-YL[hArg]FRPKDRGGC-NH2; thioether N-12) |
| 0.056 | Cc1ccc(C[C@@H]2NC(=O)[C@H](CCCNC(=N)N)NC(=O)[C@H](CC(C)C)NC(=O)[C@H](Cc3ccc(O)cc3)NC(=O)CSC[C@@H](C(N)=O)NC(=O)CNC(=O)CNC(=O)[C@H](CCCNC(=N)N)NC(=O)[C@H](CC(=O)O)NC(=O)[C@H](CCCCN)NC(=O)[C@@H]3CCCN3C(=O)[C@H](CCCNC(=N)N)NC2=O)cc1 ({CH2CO}-YLR[Phe(4-Me)]RPKDRGGC-NH2; thioether N-12) |
| 0.046 | CC(C)C[C@@H]1NC(=O)[C@H](Cc2ccc(O)cc2)NC(=O)CSC[C@@H](C(N)=O)NC(=O)CNC(=O)CNC(=O)[C@H](CCCNC(=N)N)NC(=O)[C@H](CC(=O)O)NC(=O)[C@H](CCCCN)NC(=O)[C@@H]2CCCN2C(=O)[C@H](CCCNC(=N)N)NC(=O)[C@H](Cc2ccc(F)cc2)NC(=O)[C@H](CCCNC(=N)N)NC1=O ({CH2CO}-YLR[Phe(4-F)]RPKDRGGC-NH2; thioether N-12) |
